Literature values, collected in US20120190734A1, “COMPOUNDS AND COMPOSITIONS FOR TREATING INFECTION” (priority 2011, published 2012).

Legend:
[1] = system: herpes simplex virus (HSV-2)
[2] = biological target: HIV-1 reverse transcriptase (Human immunodeficiency virus type 1 group M subtype B, UniProt P04585)

Compound | anti-herpes simplex virus (HSV-2) activity in vitro [1] | effect on HIV-1 reverse transcriptase activity [2] | further results
Prunellin |  |  | minimum inhibition concentration against HIV-1 in vitro (HIV-1): 2.2 µg/mL
COC(=O)c1cc(O)c(O)c(O)c1 [methyl gallate] | exhibited anti-herpes simplex virus (HSV-2) activity |  | 
O=c1cc(-c2ccc(O)cc2)oc2cc(O)cc(O)c12 [5,7,4-truhydroxyflavone] |  |  | anti-influenza virus activity (influenza virus): anti-influenza virus activity
COCc1cc2cc(OC)c(OC)cc2c(-c2ccc3c(c2)OCO3)c1C=O [phyllamycin B] |  | inhibitory effect | 
O=C(O[C@@H]1O[C@@H]2COC(=O)c3cc(O)c(O)c(O)c3-c3c(cc(O)c(O)c3O)C(=O)O[C@H]2[C@H](OC(=O)c2cc(O)c(O)c(O)c2)[C@H]1OC(=O)c1cc(O)c(O)c(O)c1)c1cc(O)c(O)c(O)c1 [Eugeniin] | exhibited anti-herpes simplex virus (HSV-2) activity |  | 
COc1cc2cc3c(c(-c4ccc5c(c4)OCO5)c2cc1OC)COC3=O [retrojusticiden B] |  | inhibitory effect | 
